Each structure is given as a SMILES string.

One may read the melting point as the temperature, or range, at which the solid turns liquid. The term IC50 denotes the point on the concentration scale where inhibition reaches its midpoint. The low end stands for higher potency, the high end for lower potency.

Test system in the first data set: not given
Experiment: not given
Conditions: not given
Consider `COc1ccc(CS(=O)(=O)/C(C#N)=C/c2c(OC)cc(OC)cc2OC)cc1` [Example 1], for which the melting point lay in the range of 178 to 180 °C.

Regarding `COc1ccc(CS(=O)(=O)/C(C#N)=C/c2ccc(F)cc2F)cc1` [Example 2], the melting point lay within 138 to 140 °C.

With `N#C/C(=C\c1ccc(F)cc1F)S(=O)(=O)Cc1ccc(Br)cc1` [Example 4], the melting point was in the range of 146 to 148 °C.

Consider `COc1ccc(CS(=O)(=O)/C(C#N)=C/c2ccc(N)cc2)cc1` [Example 5], for which the melting point was in the range of 140 to 142 °C.

For the compound `COc1ccc(CS(=O)(=O)/C(C#N)=C/c2ccc(F)c(N)c2)cc1` [Example 6], the melting point was in the range of 146 to 148 °C.

`COc1ccc(CS(=O)(=O)/C(C#N)=C/c2ccc(F)cc2)cc1` [Example 7] yielded a melting point of 171 to 173 °C.

For the compound `COc1ccc(CS(=O)(=O)/C(C#N)=C/c2c(OC)cccc2OC)cc1` [Example 8], the melting point was 108 to 110 °C.

As for `COc1ccc(CS(=O)(=O)/C(C#N)=C/c2ccccc2OC)cc1` [Example 9], the melting point lay within 143 to 145 °C.

The compound `COc1ccc(CS(=O)(=O)/C(C#N)=C/c2ccc([N+](=O)[O-])cc2)cc1` [Example 10] had a melting point of 174 to 176 °C.

Turning to `COc1ccc(CS(=O)(=O)/C(C#N)=C/c2ccoc2)cc1` [Example 12], the melting point lay in the range of 150 to 153 °C.

As to `COc1ccc(CS(=O)(=O)/C(C#N)=C/c2ccsc2)cc1` [Example 13], the melting point was in the range of 142 to 144 °C.

`N#C/C(=C\c1ccccc1OC(F)F)S(=O)(=O)Cc1ccc(Br)cc1` [Example 14]: the melting point was 204 to 206 °C.

`COc1ccc(CS(=O)(=O)/C(C#N)=C/c2ccc(C#N)cc2F)cc1` [Example 17] returned a melting point of 112 to 114 °C.

The compound `COc1ccc(CS(=O)(=O)/C(C#N)=C/c2ccc(OC)c(OC)c2)cc1` [Example 26] showed a melting point of 156 to 158 °C.

`COc1ccc(CS(=O)(=O)/C(C#N)=C/c2ccc(O)c(O)c2)cc1OC` [Example 28] showed a melting point of 196 to 198 °C.

`N#C/C(=C\c1ccc([N+](=O)[O-])cc1)S(=O)(=O)Cc1ccc(Br)cc1` [Example 31] came in with a melting point of 138 to 142 °C.

As to `COc1cc(OC)c(/C=C(\C#N)S(=O)(=O)Cc2ccc(OC)c([N+](=O)[O-])c2)c(OC)c1` [Example 34], the melting point is 184 to 186 °C.

On to `Cc1ccc(/C=C(\C(N)=O)S(=O)(=O)Cc2ccc(Cl)cc2Cl)cc1C` [Example 151], for which the melting point fell in the range of 193 to 196 °C.

`COc1cc(OC)c(/C=C(\C(N)=O)S(=O)(=O)Cc2ccc(Cl)cc2Cl)c(OC)c1` [Example 152] gave a melting point of 201 to 204 °C.

For `NC(=O)/C(=C\c1ccc(Br)cc1)S(=O)(=O)Cc1ccc(Cl)cc1Cl` [Example 153], the melting point was 195 to 196 °C.

Compound `COc1ccc(/C=C(\C(N)=O)S(=O)(=O)Cc2ccc(Cl)cc2Cl)cc1O` [Example 154, (E)-2-[(2,4-dichlorophenyl)methanesulfonyl]-3-(3-hydroxy-4-methoxyphenyl)acrylamide] had a melting point of 185 to 189 °C.

`NC(=O)/C(=C\c1cccc(Cl)c1Cl)S(=O)(=O)Cc1ccc(F)cc1` [Example 155]: the melting point was 188 to 193 °C.

As for `NC(=O)/C(=C\c1ccc(Cl)cc1Cl)S(=O)(=O)Cc1ccccc1Cl` [Example 156], the melting point lay within 158 to 164 °C.

Compound `Cc1ccc(C)c(/C=C(\C(N)=O)S(=O)(=O)Cc2ccc(Cl)cc2)c1` [Example 157] had a melting point of 79 to 82 °C.

Turning to `CCOc1ccc(/C=C(\C(N)=O)S(=O)(=O)Cc2ccc(Cl)cc2)cc1OC` [Example 158, (E)-2-[(4-chlorophenyl)methanesulfonyl]-3-(4-ethoxy-3-methoxyphenyl)acrylamide], the melting point fell in the range of 195 to 197 °C.

For the compound `CCOc1ccc(/C=C(\C(N)=O)S(=O)(=O)Cc2ccc([N+](=O)[O-])cc2)cc1OC` [Example 159, (E)-2-[(4-nitrophenyl)methanesulfonyl]-3-(4-ethoxy-3-methoxyphenyl)acrylamide], the melting point fell in the range of 235 to 240 °C.

The compound `Cc1ccc(C)c(/C=C(\C(N)=O)S(=O)(=O)Cc2ccc(F)cc2)c1` [Example 160] came in with a melting point of 172 to 176 °C.

On to `NC(=O)/C(=C\c1ccc(Br)cc1)S(=O)(=O)Cc1ccc(F)cc1` [Example 161], for which the melting point lay within 199 to 200 °C.

With `NC(=O)/C(=C\c1cc(F)c(F)cc1F)S(=O)(=O)Cc1ccc(F)cc1` [Example 162], the melting point lay within 168 to 170 °C.

In the case of `Cc1cc(C)cc(/C=C(\C(N)=O)S(=O)(=O)Cc2ccc(Cl)cc2)c1` [Example 163], the melting point lay in the range of 172 to 176 °C.

On to `CCOc1ccc(/C=C(\C(N)=O)S(=O)(=O)Cc2ccc(F)cc2)cc1OC` [Example 164, (E)-2-[(4-fluorophenyl)methanesulfonyl]-3-(4-ethoxy-3-methoxyphenyl)acrylamide], for which the melting point fell in the range of 197 to 202 °C.

Consider `NC(=O)/C(=C\c1ccc(Cl)cc1Cl)S(=O)(=O)Cc1ccc(Cl)cc1` [Example 165], for which the melting point lay in the range of 206 to 210 °C.

On to `NC(=O)/C(=C\c1ccc(F)cc1Cl)S(=O)(=O)Cc1ccc(Cl)cc1` [Example 166], for which the melting point was 194 to 199 °C.

In turn, `CC(=O)c1ccc(/C=C(\C(N)=O)S(=O)(=O)Cc2ccc(Cl)cc2Cl)cc1` [Example 167] yielded a melting point of 207 to 210 °C.

As to `CCOc1ccc(/C=C(\C(N)=O)S(=O)(=O)Cc2ccc(Cl)cc2Cl)cc1OC` [Example 168, (E)-2-[(2,4-dichlorophenyl)methanesulfonyl]-3-(4-ethoxy-3-methoxyphenyl)acrylamide], the melting point was 245 to 247 °C.

On to `NC(=O)/C(=C\c1cccc(Cl)c1Cl)S(=O)(=O)Cc1ccc([N+](=O)[O-])cc1` [Example 169], for which the melting point is 200 to 202 °C.

Regarding `COc1ccc(CS(=O)(=O)/C(=C/c2c(OC)cc(OC)cc2OC)C(N)=O)cc1` [Example 171], the melting point lay within 168 to 171 °C.

As for `COc1cc(OC)c(/C=C(\C(N)=O)S(=O)(=O)c2ccccc2)c(OC)c1` [Example 178], the melting point fell in the range of 164 to 167 °C.

On to `COc1ccc(S(=O)(=O)/C(=C/c2ccc(F)cc2)C(N)=O)cc1` [Example 181], for which the melting point is 154 to 156 °C.

`COc1ccc(S(=O)(=O)/C(=C/c2c(OC)cc(OC)cc2OC)C(N)=O)cc1` [Example 182] gave a melting point of 172 to 175 °C.

`COc1cc(OC)c(/C=C(\[N+](=O)[O-])S(=O)(=O)c2ccccc2)c(OC)c1` [Example 187]: the melting point is 176 to 180 °C.

`COc1ccc(NS(=O)(=O)/C(C#N)=C/c2c(OC)cccc2OC)cc1` [Example 193] yielded a melting point of 154 to 156 °C.

The test system of the next data set is DU145 (prostate cancer). As to the kind of experiment: Effect on tumor cell lines, viable cell count by trypan blue exclusion (Latham et al.): DU145. It counts as cell-based. The following applies: Homo sapiens, DU-145, 96 h, DU145 prostate cancer cells, viable cell count 96 hours after treatment. The protocol:
The effect of the compounds of the invention on tumor cells was determined by the assay described by Latham et al., Oncogene 12:827-837 (1996). Tumor cells DU145 (prostate cancer), K562 (chronic myelogenous leukaemia), BT20 (breast carcinoma), H157 (non small cell lung carcinoma), or DLD1 (colon carcinoma) were plated in 6-well dishes at a cell density of 1.0×10^5 cells per 35-mm^2 well. […] The total number of viable cells was determined 96 hours later by trypsinizing the wells and counting the number of viable cells, as determined by trypan blue exclusion, using a hemacytometer. Normal HFL cells were treated with the same compounds under the same conditions of concentration and time.
Turning to `COc1ccc(CS(=O)(=O)/C(C#N)=C/c2c(OC)cc(OC)cc2OC)cc1` [Example 1], the IC50 came to 25 µM.

`COc1ccc(CS(=O)(=O)/C(C#N)=C/c2ccc(F)cc2F)cc1` [Example 2] displayed an IC50 of 100 µM.

`COc1ccc(CS(=O)(=O)/C(C#N)=C/c2ccc(F)c([N+](=O)[O-])c2)cc1` [Example 3] displayed an IC50 of 50 µM.

For `COc1ccc(CS(=O)(=O)/C(C#N)=C/c2ccc(N)cc2)cc1` [Example 5], the half-maximal inhibitory concentration (IC50) worked out at 75 µM.

Take `COc1ccc(CS(=O)(=O)/C(C#N)=C/c2ccc(F)cc2)cc1` [Example 7]: the 50% inhibitory concentration (IC50) is 100 µM.

On to `COc1ccc(CS(=O)(=O)/C(C#N)=C/c2c(OC)cccc2OC)cc1` [Example 8], for which the IC50 came out at 75 µM.

In turn, `COc1ccc(CS(=O)(=O)/C(C#N)=C/c2ccc3[nH]c(=O)oc3c2)cc1OC` [Example 29] came in with a half-maximal inhibitory concentration (IC50) of 100 µM.

In turn, `COc1ccc(CS(=O)(=O)/C(C#N)=C/c2c(F)c(F)c(F)c(F)c2F)cc1OC` [Example 32] yielded a half-maximal inhibitory concentration (IC50) of 10 µM.

(Values after patent US20090191193A1, “Aryl Vinyl Sulfides, Sulfones, Sulfoxides and Sulfonamides, Derivatives Thereof and Therapeutic Uses Thereof” (TEMPLE UNIVERSITY-OF THE COMMONWEALTH SYSTEM OF HIGHER …, priority 2006, published 2009).)
